The values that follow come from paper PMC10290335 (Malaria Journal, 2023).

Series [1] in a line: Clinical pharmacokinetics of ivermectin metabolites in blood of healthy volunteers. The class given is in vivo, human. The following applies: for Cmax [ratio]: area/internal standard area ratio; for Cmax [ratio] / Half-life / MRTlast / Tmax: whole blood, 12 subjects, mean ± SE; for Cmax [ratio] / Half-life / MRTlast: 12 mg ivermectin, NCA; for Tmax: single oral 12 mg ivermectin. As to the method:
Peripheral venous blood samples were collected before dosing and after 1, 2, 4, 6, 8, 12, 24, 48 and 72 h. Blood samples (50 µL) were extracted by the addition of 150 µL ISTD solution. Samples were mixed for 1 min and centrifuged for 30 min at 3220×g and 15 °C (5810 R centrifuge). Twenty microlitres of supernatant were injected into the LC–MS/MS system to determine the signal intensity of the metabolites.
The different LC–MS/MS settings were applied for the metabolism, pharmacokinetic and metabolite fractioning assays (Additional file 1: Table S1, S2, S3). All analyses were performed on a modular HPLC (Shimadzu, Kyoto, Japan) composed of four pumps (2 × LC-30AD, 2 × LC-20AD), an autosampler (SIL 30-AC MP), a system controller (CBM-20A), two degassing units (DGU-20A5 and DGU-20A3R), a column oven (CTO-20AC), a low-pressure valve (FCV-12AH), and a fraction collector (FRC-12A). The HPLC system was connected to an API 5000 triple quadrupole mass spectrometer (AB Sciex, Ontario, Canada) that was equipped with a turbo electrospray ionization source. The system was operated with Analyst Software 1.7 (AB Sciex) and acquired data were analysed using MultiQuant Software 3.0.3 (AB Sciex).
The integral method “linear up log down” was used on area/internal standard area ratio.
In total, three T0 blank blood samples originating from different PK study participants were used to resuspend the metabolites (Additional file 1: Table S5). The signal intensity was recorded for every metabolite by extracting the 50 µL blood with 150 µL of ISTD solution. The metabolite peak area was determined by LC–MS/MS (see section LC-MS/MS analysis of ivermectin). Moreover, the PK samples of all study participants were equally extracted and analysed to derive the maximal blood level (Cmax) from the blood level-time curves. Afterwards, the mean metabolite peak area of the spiked blank blood was compared with the mean peak area of the Cmax samples (Additional file 1: Table S5). The amount of each metabolite fraction was either reduced or increased to match the peak area of Cmax samples. If the metabolite was not detectable in PK samples, the amount of metabolite was adjusted to the lower limit of detection of the method. In this case, blank blood was spiked with the metabolite fraction to receive a signal intensity that is three times larger than the corresponding noise level.

Series [2] deals with Anopheles stephensi mosquitoes. The experiment in a line: Anopheles stephensi membrane feeding screening assay (survival and activity). The class given is in vivo. The following applies: for Average activity score: score +2 flying, +1 moving, 0 dead; for activity against An. stephensi: at Cmax levels observed in clinical PK samples. As to the method: The final DMSO content in blood was 0.1%, which was also the DMSO concentration used for the negative control assays (0.1% DMSO in blank blood). Inclusion of blank fractions as additional negative controls were not considered, because it would not have been feasible to also test the corresponding blank fraction for each metabolite fraction (F1–F9). The blood preparations were rotated at room temperature for 20 min to ensure a uniform metabolite distribution (Rotator Genie, Scientific Industries, Bohemia, USA). The dissolution of the metabolites was confirmed by LC–MS/MS.
Around 50–70 female mosquitoes aged 5–10 days post-emergence were transferred with a mouth aspirator into 20 mL paper cups. A piece of mosquito netting was used to cover the cups. Mosquitoes were starved for 24 h before treatment. The mosquito blood meals were heated in a water bath (SAHARA PPO S5P Heated Bath Circulators, Thermo Fisher Scientific, New Hampshire, USA) for 20 min at 39 °C. A Petri dish (35 mm × 10 mm, BD, Franklin Lakes, USA) was filled with 3 mL of warm blood, sealed with a piece of sealing film (Parafilm®, Huberlab AG, Aesch, Switzerland). The Petri dish was placed upside down on top of the net sealing the paper cup. Female mosquitoes were allowed to feed for 20 min on the blood through the net and the sealing film. The feeding was conducted in a climate chamber (HPP110, Memmert GmbH + Co.KG, Schwabach, Germany) at 27 °C, 70% humidity, and 30% light intensity. After feeding, the cups were put on ice to immobilise the mosquitoes and only the fully engorged mosquitoes were selected for the assay. The mosquitoes were returned to the climate chamber to assess their activity and survival for 3 days.
In the framework of screening assays, mosquitoes were treated with blood containing each metabolite corresponding to Cmax levels observed in PK samples. […] In screening assays, eleven treatments were evaluated with three replicates using three batches of 50–70 mosquitoes.

[3] abbreviates: mean of PK subjects 1-12, 50 µL blood.

By Tmax is commonly meant the time at which the peak concentration occurs. For 3″-O-desmethyl, 26-hydroxy-H2B1a [M6], the “Observed Cmax, peak area” value in series [1] (PK subject 1, 50 µL blood) is 3.04E+03 counts; in series [1] (PK subject 2, 50 µL blood), 1.56E+03 counts; in series [1] (PK subject 3, 50 µL blood) it was 2.10E+03 counts; in series [1] (PK subject 4, 50 µL blood) it was 1.60E+03 counts; in series [1] (PK subject 5, 50 µL blood) it was 1.15E+03 counts; in series [1] (PK subject 6, 50 µL blood), 3.23E+03 counts. Moreover, the “Observed Cmax, peak area” value in series [1] (PK subject 7, 50 µL blood) turned out to be 1.62E+03 counts; in series [1] (PK subject 8, 50 µL blood), 1.82E+03 counts; in series [1] (PK subject 9, 50 µL blood) it was 1.80E+03 counts; in series [1] (PK subject 10, 50 µL blood), 1.99E+03 counts; in series [1] (PK subject 11, 50 µL blood) it was 2.12E+03 counts; in series [1] (PK subject 12, 50 µL blood), 2.69E+03 counts. Further, the “Observed Cmax, peak area” value in series [1] (setting [3]) stood at 2.06E+03 counts. In series [1], the “Cmax [ratio]” value is listed as 0.002 ± 0.0002 ratio. In addition, the Half-life in series [1] is 32.4 ± 4.1 h. Besides, the MRTlast in series [1] stood at 18.3 ± 1.6 h. Besides, in series [1], the Tmax is on record as 5.4 ± 0.4 h. The Average activity score in series [2] (0 h post feeding) is 2.00; in series [2] (24 h post feeding) it was 1.89; in series [2] (48 h post feeding) it was 1.91; in series [2] (72 h post feeding), 1.42. The “activity against An. stephensi” value in series [2] was “minor mosquitocidal properties”. In addition, the “mean survival of mosquitoes after blood meal” value in series [2] (blood meal at Cmax level) is “decreased”.
4, 26-dihydroxy- H2B1a [M8]: the “Observed Cmax, peak area” value in series [1] (PK subject 1, 50 µL blood) stood at 7.02E+02 counts; in series [1] (PK subject 2, 50 µL blood) it was 5.34E+02 counts; in series [1] (PK subject 3, 50 µL blood) it was 4.91E+02 counts; in series [1] (PK subject 4, 50 µL blood), 3.41E+02 counts; in series [1] (PK subject 5, 50 µL blood), 3.43E+02 counts; in series [1] (PK subject 6, 50 µL blood) it was 6.41E+02 counts. Moreover, the “Observed Cmax, peak area” value in series [1] (PK subject 7, 50 µL blood) was 3.42E+02 counts; in series [1] (PK subject 8, 50 µL blood), 4.91E+02 counts; in series [1] (PK subject 9, 50 µL blood) it was 4.29E+02 counts; in series [1] (PK subject 10, 50 µL blood) it was 4.93E+02 counts; in series [1] (PK subject 11, 50 µL blood), 2.79E+02 counts; in series [1] (PK subject 12, 50 µL blood), 4.55E+02 counts. For the same molecule, in series [1] (setting [3]), the “Observed Cmax, peak area” value was found to be 4.62E+02 counts. For the same molecule, in series [1], the Tmax is reported as 5.0 ± 0.3 h. Further, the Average activity score is reported as 2.00 in series [2] (0 h post feeding), 1.91 in series [2] (24 h post feeding), 1.93 in series [2] (48 h post feeding) and 1.68 in series [2] (72 h post feeding).
With 26-hydroxy-H2B1a [M3], the “Observed Cmax, peak area” value in series [1] (PK subject 1, 50 µL blood) is 6.21E+03 counts; in series [1] (PK subject 2, 50 µL blood), 3.33E+03 counts; in series [1] (PK subject 3, 50 µL blood), 4.98E+03 counts; in series [1] (PK subject 4, 50 µL blood), 2.70E+03 counts; in series [1] (PK subject 5, 50 µL blood), 3.63E+03 counts; in series [1] (PK subject 6, 50 µL blood) it was 5.52E+03 counts. Also, the “Observed Cmax, peak area” value in series [1] (PK subject 7, 50 µL blood) was determined as 4.44E+03 counts; in series [1] (PK subject 8, 50 µL blood), 4.04E+03 counts; in series [1] (PK subject 9, 50 µL blood) it was 3.41E+03 counts; in series [1] (PK subject 10, 50 µL blood), 4.42E+03 counts; in series [1] (PK subject 11, 50 µL blood) it was 4.22E+03 counts; in series [1] (PK subject 12, 50 µL blood) it was 4.51E+03 counts. Besides, the “Observed Cmax, peak area” value in series [1] (setting [3]) stood at 4.28E+03 counts. Besides, in series [1], the “Cmax [ratio]” value is on record as 0.003 ± 0.0003 ratio. Moreover, the Half-life in series [1] is listed as 15.9 ± 2.8 h. The MRTlast in series [1] was determined as 13.9 ± 1.3 h. In addition, the time of peak concentration (Tmax) in series [1] is 5.3 ± 0.2 h. Further, the Average activity score is 2.00 in series [2] (0 h post feeding), 1.82 in series [2] (24 h post feeding), 1.86 in series [2] (48 h post feeding) and 1.67 in series [2] (72 h post feeding).
Turning to 26-hydroxy-H2B1a monosaccharide [M7], the “Observed Cmax, peak area” value in series [1] (PK subject 1, 50 µL blood) came out at 1.31E+03 counts; in series [1] (PK subject 2, 50 µL blood), 7.70E+02 counts; in series [1] (PK subject 3, 50 µL blood), 9.70E+02 counts; in series [1] (PK subject 4, 50 µL blood), 7.68E+02 counts; in series [1] (PK subject 5, 50 µL blood) it was 8.12E+02 counts; in series [1] (PK subject 6, 50 µL blood), 1.39E+03 counts. For the same molecule, the “Observed Cmax, peak area” value was determined as 1.26E+03 counts in series [1] (PK subject 7, 50 µL blood); 1.09E+03 counts in series [1] (PK subject 8, 50 µL blood); 7.88E+02 counts in series [1] (PK subject 9, 50 µL blood); 9.63E+02 counts in series [1] (PK subject 10, 50 µL blood); 1.21E+03 counts in series [1] (PK subject 11, 50 µL blood); 9.57E+02 counts in series [1] (PK subject 12, 50 µL blood). In addition, the “Observed Cmax, peak area” value in series [1] (setting [3]) is reported as 1.02E+03 counts. The time to peak (Tmax) in series [1] is on record as 6.1 ± 0.4 h. In addition, the Average activity score was found to be 2.00 in series [2] (0 h post feeding), 1.85 in series [2] (24 h post feeding), 1.80 in series [2] (48 h post feeding) and 1.69 in series [2] (72 h post feeding).
Regarding `CCC(C)C1OC2(CCC1C)CC1CC(CC=C(C)C(OC3CC(OC)C(OC4CC(O)C(O)C(C)O4)C(C)O3)C(C)C=CC=C3COC4C(O)C(CO)=CC(C(=O)O1)C34O)O2` (centres unmarked) [M4, 3″-O-desmethyl, 4-hydroxy-H2B1a], the “Observed Cmax, peak area” value in series [1] (PK subject 1, 50 µL blood) turned out to be 6.13E+03 counts; in series [1] (PK subject 2, 50 µL blood), 4.65E+03 counts; in series [1] (PK subject 3, 50 µL blood), 5.03E+03 counts; in series [1] (PK subject 4, 50 µL blood) it was 4.08E+03 counts; in series [1] (PK subject 5, 50 µL blood) it was 2.43E+03 counts; in series [1] (PK subject 6, 50 µL blood), 7.98E+03 counts. Also, the “Observed Cmax, peak area” value in series [1] (PK subject 7, 50 µL blood) is 4.09E+03 counts; in series [1] (PK subject 8, 50 µL blood), 5.21E+03 counts; in series [1] (PK subject 9, 50 µL blood), 4.12E+03 counts; in series [1] (PK subject 10, 50 µL blood), 5.38E+03 counts; in series [1] (PK subject 11, 50 µL blood), 5.67E+03 counts; in series [1] (PK subject 12, 50 µL blood), 5.92E+03 counts. For the same molecule, in series [1] (setting [3]), the “Observed Cmax, peak area” value is reported as 5.06E+03 counts. The “Cmax [ratio]” value in series [1] is 0.004 ± 0.0004 ratio. The Half-life in series [1] amounted to 57.5 ± 13.2 h. The MRTlast in series [1] turned out to be 29.4 ± 1.7 h. Further, in series [1], the Tmax is 6.0 ± 0.2 h. Further, the Average activity score in series [2] (0 h post feeding) came out at 2.00; in series [2] (24 h post feeding), 1.84; in series [2] (48 h post feeding) it was 1.30; in series [2] (72 h post feeding), 0.57. In addition, in series [2], the “activity against An. stephensi” value is on record as “minor mosquitocidal properties”. In series [2] (blood meal at Cmax level), the “mean survival of mosquitoes after blood meal” value is recorded as “decreased”. Besides, in series [2] (blood meal at Cmax level, observation period of 3 days), the mosquito survival amounted to 35%.
